Experiment [1] addresses T1, serotoninergic 5-HT1A receptor (Homo sapiens, UniProt P08908).
T1 sequence (P08908 1-422): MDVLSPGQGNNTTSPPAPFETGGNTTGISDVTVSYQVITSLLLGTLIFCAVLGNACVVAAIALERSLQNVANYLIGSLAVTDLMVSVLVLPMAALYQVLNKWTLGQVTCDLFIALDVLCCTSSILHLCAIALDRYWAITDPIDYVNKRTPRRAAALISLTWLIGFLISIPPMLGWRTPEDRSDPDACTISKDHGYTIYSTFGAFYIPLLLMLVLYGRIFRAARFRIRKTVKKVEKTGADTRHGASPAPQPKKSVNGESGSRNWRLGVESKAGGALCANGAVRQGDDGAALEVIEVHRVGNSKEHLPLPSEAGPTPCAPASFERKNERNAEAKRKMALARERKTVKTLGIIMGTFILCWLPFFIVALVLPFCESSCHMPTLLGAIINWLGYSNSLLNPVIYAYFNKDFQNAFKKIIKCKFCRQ
Put plainly: Binding assay 5-HT1A (h), [3H]8-OH-DPAT, HEK-293 cells. Also on record: expressed in transfected cells; host or cells: HEK-293 cells. The conditions noted are these: read-out: 5-HT1A. An outline of the steps:
(§1)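 Tested at 1×10^−6 M. Specific binding: total minus binding remaining with excess cold ligand. Detection: scintillation counting.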

Experiment [2] deals with T2, serotonine transporter (SERT) receptor (Homo sapiens, UniProt P31645).
T2 construct: expressed in transfected cells; host or cells: CHO cells
T2 sequence (P31645 whole entry): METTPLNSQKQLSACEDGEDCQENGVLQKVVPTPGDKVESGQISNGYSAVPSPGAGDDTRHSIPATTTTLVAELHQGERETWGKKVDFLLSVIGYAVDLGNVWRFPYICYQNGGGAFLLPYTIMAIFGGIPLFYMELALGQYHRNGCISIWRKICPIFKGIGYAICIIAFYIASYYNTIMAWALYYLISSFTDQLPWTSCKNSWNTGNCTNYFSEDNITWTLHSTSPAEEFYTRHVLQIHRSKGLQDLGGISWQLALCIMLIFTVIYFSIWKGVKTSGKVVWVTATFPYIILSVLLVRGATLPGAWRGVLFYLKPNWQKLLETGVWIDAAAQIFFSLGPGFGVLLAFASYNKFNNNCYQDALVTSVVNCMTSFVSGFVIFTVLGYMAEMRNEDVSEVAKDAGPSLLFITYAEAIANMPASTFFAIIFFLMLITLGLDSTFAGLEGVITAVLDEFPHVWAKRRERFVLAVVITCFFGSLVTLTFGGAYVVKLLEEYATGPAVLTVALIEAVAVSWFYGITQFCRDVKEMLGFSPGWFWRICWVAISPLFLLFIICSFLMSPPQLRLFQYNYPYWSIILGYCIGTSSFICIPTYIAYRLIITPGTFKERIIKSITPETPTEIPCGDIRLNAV
In words: Binding assay SERT (h), [3H]imipramine, CHO cells. The settings on record: read-out: SERT [%]. In outline: as §1

The target in experiment [3] is serotoninergic 5-HT6 receptor (Homo sapiens, UniProt P50406). In words: Binding assay 5-HT6 (h), [3H]LSD, CHO cells. The settings on record: read-out: 5-HT6. More on the design: expressed in transfected cells; host or cells: CHO cells. An outline of the steps: as §1
Sequence of serotoninergic 5-HT6 receptor (P50406 whole entry): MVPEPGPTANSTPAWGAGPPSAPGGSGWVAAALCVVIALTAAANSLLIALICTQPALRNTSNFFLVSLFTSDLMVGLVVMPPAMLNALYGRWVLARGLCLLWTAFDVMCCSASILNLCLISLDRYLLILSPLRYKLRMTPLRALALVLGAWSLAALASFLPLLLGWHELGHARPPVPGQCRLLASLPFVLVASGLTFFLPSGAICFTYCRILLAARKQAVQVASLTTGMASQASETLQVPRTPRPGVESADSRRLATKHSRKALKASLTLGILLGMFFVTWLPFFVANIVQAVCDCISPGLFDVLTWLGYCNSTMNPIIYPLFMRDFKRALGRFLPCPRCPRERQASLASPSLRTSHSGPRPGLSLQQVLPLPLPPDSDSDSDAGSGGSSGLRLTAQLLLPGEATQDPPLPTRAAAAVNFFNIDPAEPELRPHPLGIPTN
Experiment [4] has as its target dopaminergic D3 receptor (Homo sapiens, UniProt P35462). In words: Binding assay D3 (h), [3H]methyl-spiperone, CHO cells. More on the design: expressed in transfected cells; host or cells: CHO cells. The conditions noted are these: read-out: D3 [%]. An outline of the steps:
as §1

Experiment [5] has as its system adrenergic α1 receptor. In words: Binding assay α1 (non-selective), [3H]prazosin, rat cerebral cortex. The conditions noted are these: percent inhibition of control specific binding; compounds tested at 1×10^−6 M. In outline:
as §1

In experiment [6] the target is dopaminergic D2 receptor (Homo sapiens, UniProt P14416). Put plainly: Binding assay D2S (h), [3H]methyl-spiperone, HEK-293 cells. Also on record: expressed in transfected cells; host or cells: HEK-293 cells. The conditions noted are these: read-out: D2 [%]. In outline:
as §1

The target in experiment [7] is serotoninergic 5-HT2A receptor (Homo sapiens, UniProt P28223). Put plainly: Binding assay 5-HT2A (h), [3H]ketanserin, HEK-293 cells. More on the design: expressed in transfected cells; host or cells: HEK-293 cells. The settings on record: read-out: 5-HT2A. In outline: as §1
Sequence of serotoninergic 5-HT2A receptor (P28223 whole entry): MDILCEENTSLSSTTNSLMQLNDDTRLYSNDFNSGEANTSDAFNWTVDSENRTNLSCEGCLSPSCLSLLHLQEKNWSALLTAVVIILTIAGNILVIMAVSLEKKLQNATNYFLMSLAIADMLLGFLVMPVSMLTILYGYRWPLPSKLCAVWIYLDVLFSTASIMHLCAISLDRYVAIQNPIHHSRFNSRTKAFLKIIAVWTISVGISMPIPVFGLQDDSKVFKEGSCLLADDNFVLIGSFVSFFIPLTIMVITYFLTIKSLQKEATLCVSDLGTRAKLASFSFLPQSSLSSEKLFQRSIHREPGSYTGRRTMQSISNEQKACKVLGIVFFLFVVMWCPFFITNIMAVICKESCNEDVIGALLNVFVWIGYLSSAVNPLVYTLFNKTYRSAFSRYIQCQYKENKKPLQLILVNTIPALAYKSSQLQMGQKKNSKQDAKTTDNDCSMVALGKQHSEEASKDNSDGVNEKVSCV
For experiment [8], the target named is serotoninergic 5-HT7 receptor (Homo sapiens, UniProt P34969). In words: Binding assay 5-HT7 (h), [3H]LSD, CHO cells. Also on record: expressed in transfected cells; host or cells: CHO cells. The conditions noted are these: read-out: 5-HT7. An outline of the steps: as §1
Sequence of serotoninergic 5-HT7 receptor (P34969 whole entry): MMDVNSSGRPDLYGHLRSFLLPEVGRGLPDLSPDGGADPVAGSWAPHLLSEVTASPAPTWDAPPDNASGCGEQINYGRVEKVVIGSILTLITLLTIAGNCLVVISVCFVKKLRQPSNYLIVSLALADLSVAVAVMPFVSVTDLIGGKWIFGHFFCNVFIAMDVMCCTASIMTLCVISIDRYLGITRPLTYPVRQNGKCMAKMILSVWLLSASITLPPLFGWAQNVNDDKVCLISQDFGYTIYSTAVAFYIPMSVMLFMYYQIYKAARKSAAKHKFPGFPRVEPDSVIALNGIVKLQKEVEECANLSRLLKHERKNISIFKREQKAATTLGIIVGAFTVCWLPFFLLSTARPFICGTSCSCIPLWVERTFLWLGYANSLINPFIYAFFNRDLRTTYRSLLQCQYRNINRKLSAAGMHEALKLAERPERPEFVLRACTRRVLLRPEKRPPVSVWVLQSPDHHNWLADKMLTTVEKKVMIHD

SMILES strings stand for the structures.

Sequence of dopaminergic D3 receptor (P35462 whole entry): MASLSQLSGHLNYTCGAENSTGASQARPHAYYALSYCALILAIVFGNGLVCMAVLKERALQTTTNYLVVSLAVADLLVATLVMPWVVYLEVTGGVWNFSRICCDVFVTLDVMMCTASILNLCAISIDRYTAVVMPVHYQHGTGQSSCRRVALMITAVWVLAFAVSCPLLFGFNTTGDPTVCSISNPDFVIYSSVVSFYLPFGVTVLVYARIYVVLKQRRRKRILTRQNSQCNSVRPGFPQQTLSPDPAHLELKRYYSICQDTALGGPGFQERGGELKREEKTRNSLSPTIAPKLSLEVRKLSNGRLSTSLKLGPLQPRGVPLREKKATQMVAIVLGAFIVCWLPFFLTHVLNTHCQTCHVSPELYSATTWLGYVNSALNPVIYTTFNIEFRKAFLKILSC
Sequence of dopaminergic D2 receptor (P14416 1-414 isoform P14416-2): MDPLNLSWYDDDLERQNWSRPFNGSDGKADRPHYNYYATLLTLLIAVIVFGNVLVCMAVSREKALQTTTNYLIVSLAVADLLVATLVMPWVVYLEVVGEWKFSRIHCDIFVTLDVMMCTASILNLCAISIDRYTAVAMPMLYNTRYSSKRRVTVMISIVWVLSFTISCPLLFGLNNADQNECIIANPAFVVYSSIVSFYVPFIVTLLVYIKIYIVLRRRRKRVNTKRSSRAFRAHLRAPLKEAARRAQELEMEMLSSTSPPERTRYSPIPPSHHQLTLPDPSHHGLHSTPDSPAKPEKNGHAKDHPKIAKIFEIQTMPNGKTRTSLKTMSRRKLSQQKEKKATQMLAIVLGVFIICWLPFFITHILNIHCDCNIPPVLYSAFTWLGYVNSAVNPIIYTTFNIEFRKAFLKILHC

As to `O=S(=O)(NCCCCN1CCN(c2cccc3c2OCCO3)CC1)c1cccc(O)c1` [Compound 393, N-[4-[4-(2,3-Dihydro-1,4-benzodioxin-5-yl)piperazin-1-yl]butyl]-3-hydroxybenzenesulphonamide], the inhibition at 1 µM was 93% in experiment [1]; -7% in experiment [2]; 9% in experiment [3]; 92% in experiment [4]; 46% in experiment [6]; 47% in experiment [7]. Besides, the inhibition at 1 µM in experiment [8] was found to be 91%. For the same molecule, the “α1 [%]” value in experiment [5] came out at 91%.
Take `O=S(=O)(NCCCCN1CCN(c2noc3ccccc23)CC1)c1cnc2ccccn12` [Compound 293, N-[4-[4-(1,2-Benzoxazol-3-yl)piperazin-1-yl]butyl]imidazo[1,2-a]pyridine-3-sulphonamide]: the inhibition at 1 µM in experiment [1] was found to be 57%; in experiment [2], 3%; in experiment [3] it was 44%; in experiment [4], 65%; in experiment [6] it was 85%; in experiment [7], 89%. Also, the inhibition at 1 µM in experiment [8] came out at 93%. Further, the “α1 [%]” value in experiment [5] is given as 98%.
As for `O=S(=O)(NCCCN1CCC(c2noc3cc(F)ccc23)CC1)c1cccc2scnc12` [Compound 351, N-[3-[4-(6-Fluoro-1,2-benzoxazol-3-yl)piperidin-1-yl]propyl]-1,3-benzothiazole-4-sulphonamide], the inhibition at 1 µM in experiment [1] was 71%; in experiment [2], 31%; in experiment [3], 89%; in experiment [4], 103%; in experiment [6], 101%; in experiment [7], 103%. For the same molecule, in experiment [8], the inhibition at 1 µM turned out to be 94%. In addition, in experiment [5], the “α1 [%]” value is recorded as 97%.
For the molecule `O=S(=O)(NCCCCN1CCC(c2noc3cc(F)ccc23)CC1)c1c[nH]c2ncccc12` [Compound 323, N-[4-[4-(6-Fluoro-1,2-benzoxazol-3-yl)piperidin-1-yl]butyl]-1H-pyrrolo[2,3-b]pyridine-3-sulphonamide], the inhibition at 1 µM is 45% in experiment [1]; 41% in experiment [2]; 92% in experiment [3]; 96% in experiment [4]; 105% in experiment [6]; 96% in experiment [7]. In addition, in experiment [8], the inhibition at 1 µM was found to be 93%. Further, the “α1 [%]” value in experiment [5] was 103%.
Consider `O=S(=O)(NCCCCN1CCN(c2nsc3ccccc23)CC1)c1c[nH]c2ncccc12` [Compound 247, N-[4-[4-(1,2-Benzothiazol-3-yl)piperazin-1-yl]butyl]-1H-pyrrolo[2,3-b]pyridine-3-sulphonamide], for which the inhibition at 1 µM came out at 78% in experiment [1]; 14% in experiment [2]; 93% in experiment [3]; 83% in experiment [4]; 104% in experiment [6]; 88% in experiment [7]. Also, the inhibition at 1 µM in experiment [8] was 93%. The “α1 [%]” value in experiment [5] was found to be 98%.
Turning to `Cn1ccc2ccc(S(=O)(=O)NCCCCN3CCC(c4noc5cc(F)ccc45)CC3)cc21` [Compound 311, N-[4-[4-(6-Fluoro-1,2-benzoxazol-3-yl)piperidin-1-yl]butyl]-1-methyl-indole-6-sulphonamide], the inhibition at 1 µM came to 49% in experiment [1]; 34% in experiment [2]; 99% in experiment [3]; 101% in experiment [4]; 105% in experiment [6]; 105% in experiment [7]. For the same molecule, the inhibition at 1 µM in experiment [8] was found to be 95%. For the same molecule, the “α1 [%]” value in experiment [5] amounted to 107%.
As to `Cc1[nH]c2ccc(Cl)cc2c1C1=CCN(CCNS(=O)(=O)c2cccc3ccccc23)CC1` [Compound 447, N-[2-[4-(5-Chloro-2-methyl-1H-indol-3-yl)-3,6-dihydro-2H-pyridin-1-yl]ethyl]-naphthalene-1-sulphonamide], the inhibition at 1 µM is 42% in experiment [1]; 23% in experiment [2]; 106% in experiment [3]; -17% in experiment [4]; 3% in experiment [6]; 19% in experiment [7]. Besides, the inhibition at 1 µM in experiment [8] worked out at 34%. Moreover, the “α1 [%]” value in experiment [5] was 1%.
In the case of `O=S(=O)(NCCCCN1CCN(c2nsc3ccccc23)CC1)c1ccc(F)cc1` [Compound 225, N-[4-[4-(1,2-Benzothiazol-3-yl)piperazin-1-yl]butyl]-4-fluorobenzenesulphonamide], the inhibition at 1 µM was 87% in experiment [1]; -4% in experiment [2]; 74% in experiment [3]; 76% in experiment [4]; 77% in experiment [6]; 84% in experiment [7]. Besides, the inhibition at 1 µM in experiment [8] was 92%. The “α1 [%]” value in experiment [5] was found to be 94%.
As for `O=S(=O)(NCCCCN1CCN(c2nsc3ccccc23)CC1)c1ccc2c(c1)CCO2` [Compound 242, N-[4-[4-(1,2-Benzothiazol-3-yl)piperazin-1-yl]butyl]-2,3-dihydrobenzofuran-5-sulphonamide], the inhibition at 1 µM in experiment [1] was 92%; in experiment [2], 12%; in experiment [3] it was 73%; in experiment [4], 89%; in experiment [6] it was 105%; in experiment [7] it was 94%. In experiment [8], the inhibition at 1 µM stood at 101%. In experiment [5], the “α1 [%]” value was found to be 98%.
Turning to `O=S(=O)(NCCCCN1CCN(c2nsc3ccccc23)CC1)c1cccc(Cl)c1` [Compound 69, N-[4-[4-(1,2-Benzothiazol-3-yl)piperazin-1-yl]butyl]-3-chlorobenzenesulphonamide], the inhibition at 1 µM in experiment [1] was 80%; in experiment [2], 6%; in experiment [3] it was 88%; in experiment [4] it was 77%; in experiment [6] it was 106%; in experiment [7] it was 92%. Further, the inhibition at 1 µM in experiment [8] came to 96%. Further, in experiment [5], the “α1 [%]” value was 94%.
For the molecule `O=S(=O)(NCCCCN1CCC(c2noc3cc(F)ccc23)CC1)c1ccc(-c2ccccc2)cc1` [Compound 111, N-[4-[4-(6-Fluoro-1,2-benzoxazol-3-yl)piperidin-1-yl]butyl]-4-phenylbenzenesulphonamide], the inhibition at 1 µM in experiment [1] is 39%; in experiment [2], -14%; in experiment [3], 95%; in experiment [4], 93%; in experiment [6], 108%; in experiment [7] it was 96%. The inhibition at 1 µM in experiment [8] worked out at 93%. Besides, the “α1 [%]” value in experiment [5] came out at 100%.
Consider `O=S(=O)(NCCCN1CCC(c2noc3cc(F)ccc23)CC1)c1ccc(C(F)(F)F)cc1` [Compound 334, N-[3-[4-(6-Fluoro-1,2-benzoxazol-3-yl)piperidin-1-yl]propyl]-4-(trifluoromethyl)-benzenesulphonamide], for which the inhibition at 1 µM was 86% in experiment [1]; 30% in experiment [2]; 98% in experiment [3]; 96% in experiment [4]; 75% in experiment [6]; 90% in experiment [7]. Further, the inhibition at 1 µM in experiment [8] worked out at 85%. In addition, in experiment [5], the “α1 [%]” value is 105%.
